# System: patients with persistent bronchial asthma (GINA III)
# Assay: Clinical add-on therapy with oral 1,8-cineol, persistent bronchial asthma GINA III, 12 patients
# Assay type: in vivo, human
# From the text: Even after a one-week therapy at the dose mentioned above, in 9 of the 12 subjects a slight to moderate improvement of lung function was achieved. After continuing therapy for a further twelve weeks, the persistent bronchial asthma had stabilized to such an extent that in 9 of the 12 patients the inhalative glucocorticoid required could be reduced by up to 30%.
smiles,measurement,setting,value
"CC12CCC(CC1)C(C)(C)O2 [1,8-cineol, 1,3,3-trimethyl-2-oxabicyclo-[2.2.2]-octane]",tolerability,4×200 mg/day orally,"tolerated well, without any side-effects"
same,subjects with a slight to moderate improvement of lung function,"4×200 mg/day orally, after one week, add-on to beclometasone, salmeterol, theophyllin",9 of the 12
same,patients in whom the inhalative glucocorticoid required could be reduced,after a further twelve weeks,9 of the 12
same,reduction of the betamimetics required,after a further twelve weeks,up to 25%
same,reduction of the inhalative glucocorticoid required,after a further twelve weeks,up to 30%
same,patients in whom the betamimetics required could be reduced,of 12 patients treated,4

# From patent publication US11123323B2, “Monoterpenes for treating respiratory disorders, in particular bronchopulmonary disorders” (Maria Clemetine Martin Klosterfrau Vertriebsqesellschaft MBH, priority 2008, dated 2021)
